Data reported in patent EP1655608A1, “CFTR as a component of an autophagy signaling pathway, applications thereof to autophagic diseases, and determination of cystic fibrosis as an autophagic disease” (priority 2004, dated 2006).

Experiments:
[1] = tested on: p38; conditions: Lindane-treated cells; ref (38); cited from earlier work
[2] = tested on: CFTR-EGFP; experiment: Subcellular distribution of CFTR-EGFP by confocal microscopy; assay type: cell-based, hamster; conditions: BHK cells, Lindane 24 h, NH4Cl 5 mM in medium
Experimental: BHK-21 (Baby hamster kidney epithelial cells, ATCC) stably expressing CFTR-EGFP cell-line was maintained in Dulbecco's modified Eagle's medium (DMEM, GIBCO) containing 10% fetal calf serum (GIBCO).
(§1) Autophagy was induced either by starvation or by treatment with Lindane under nutrient-rich condition. For Lindane treatment, cells were serum-starved for 2-16 hours in DMEM/Ham's F12 (1:1, GIBCO #61965-026: F12 GIBCO #31765-027) supplemented with either 1% Insulin-Transferrin-SeleniumA (GIBCO #51300-044) or 0.1% bovine serum albumin (A7030, Sigma) and treated with Lindane (50 µM, Sigma, H4500).

[3] = tested on: Sertoli 42GPA9 cells; experiment: Autophagic vacuolation of Sertoli cells (light, electron and confocal microscopy); assay type: cell-based, mouse
Experimental: Autophagy was induced either by starvation or by treatment with Lindane under nutrient-rich condition.
When bafilomycin A1 (BafA1, V-ATPase-specific inhibitor, 100 nM, Sigma); Park Davis Inhibitor PD98059 (MEK1-specific inhibitor, 10 µM, Cell Signaling), H89 (PKA inhibitor, 5 µM, Calbiochem), 3-Methyladenine (3 MA, autophagy-specific inhibitor, 10-30 mM, Sigma) or NPPB [5-nitro-2-(3-phenylpropylamino) benzoic acid, Cl^- channel blocker, 25 µM, Sigma] was used, it was added to the starvation medium for 90 min, prior to Lindane addition or nutrient deprivation.
The ultrastructural changes caused by Lindane or starvation in Sertoli and renal cells were analysed by transmission electron microscopy, as previously described (57). […] Cell pellets were then rinsed in cacodylate buffer, postfixed in 1% OsO4 for 1 h at 4°C, dehydrated through graded ethanol washes, and embedded in epoxy resin. Oriented […] sections were obtained with diamond knives, and representative areas were chosen for ultra-thin sectioning. […] 30-50 micrographs were taken randomly from each sample at primary magnification × 10,000.
Sertoli cells seeded on glass coverslips were transiently transfected with EGFP-Rab7 or MEK1^+-HA expression plasmids using Fugene 6 reagent (Roche), washed and allowed to recover overnight before addition of Lindane (50 µM). […] To determine the pH of the Lindane-induced vacuoles, living cells were stained with acridine-orange (5 µg/ml, Sigma), a membrane-permeable weak base whose fluorescence shifts from green at neutral pH to red in acidic compartments (59). 10 min later, cells were washed and directly observed under a confocal microscope.

[4] = tested on: Sertoli cells; experiment: Cell death and apoptotic features in Lindane-treated Sertoli cells; assay type: cell-based, mouse
Experimental: as §1
The ultrastructural changes caused by Lindane or starvation in Sertoli and renal cells were analysed by transmission electron microscopy, as previously described (57). […] Cell pellets were then rinsed in cacodylate buffer, postfixed in 1% OsO4 for 1 h at 4°C, dehydrated through graded ethanol washes, and embedded in epoxy resin. Oriented […] sections were obtained with diamond knives, and representative areas were chosen for ultra-thin sectioning. Thin […] sections were mounted on copper mesh grids, stained with uranyl acetate and lead citrate, and examined on a JEOL 1200 EXII electron microscope. 30-50 micrographs were taken randomly from each sample at primary magnification × 10,000.

[5] = tested on: CFTR Cl^- channel; experiment: Whole-cell patch-clamp Cl- currents in CFTR+/+ and CFTR-/- renal distal cells; assay type: cell-based, mouse
Source text: To address the importance of CFTR in autophagy, renal cells derived from distal tubules or the proximal convoluted tubules of Wild type (WT or CFTR^+/+) or CFTR deficient (CFTR^-/-) mice (40) were isolated and immortalized with the pSV3 neo vector, as described below (55).
Whole cell currents were monitored from Sertoli cells, CFTR^-/- and WT renal epithelial cells with an RK 400 amplifier (Biologic, Münster, Germany) as previously described (40). The bath (extracellular) solution consisted of 140 mM NMDGCl (N-methyl-D-glucamine chloride), 5 mM D-Glucose, 1 mM CaCl2, and 10 mM HEPES, pH 7.4. Patch pipette (intracellular) solution contained 140 mM NMDGCl, 5 mM D-Glucose, 5 mM EGTA, 5 mM MgATP, and 10 mM HEPES, pH 7.4. Osmolarity of both solutions was adjusted to 280 mOSM by adding mannitol. […] To generate whole cell current-voltage (I-V) relationship, membrane currents resulting from voltage stimuli were recorded for at least 3 min and analysed using an IBM-AT-compatible computer equipped with Digidata 1200 interface (Axon Instruments) and pCLAMP software (versions 5.51 and 6.0, Axon Instruments), respectively. Statistics-Results are expressed as mean ± S.E. of n observations using the Student's t test.

[6] = molecular target: CFTR Cl^- channel (Mus musculus, UniProt P26361); experiment: Whole-cell patch-clamp Cl- currents in Sertoli cells; assay type: cell-based; design: endogenous in cells; host or cells: Sertoli 42GPA9 cell line (mouse)
Experimental: Whole cell currents were monitored from Sertoli cells, CFTR^-/- and WT renal epithelial cells with an RK 400 amplifier (Biologic, Münster, Germany) as previously described (40). The bath (extracellular) solution consisted of 140 mM NMDGCl (N-methyl-D-glucamine chloride), 5 mM D-Glucose, 1 mM CaCl2, and 10 mM HEPES, pH 7.4. Patch pipette (intracellular) solution contained 140 mM NMDGCl, 5 mM D-Glucose, 5 mM EGTA, 5 mM MgATP, and 10 mM HEPES, pH 7.4. Osmolarity of both solutions was adjusted to 280 mOSM by adding mannitol. These solutions were designed to study Cl^- currents because Cl^- is the sole permeant ion in these conditions and to prevent Ca^2+ activated Cl^- currents by the addition of EGTA in the patch solution. After establishment of whole cell configuration, cells were stimulated by the addition of Lindane (50 µM), FSK (10 µM), vehicle (Me2S0 or ethanol) in the absence or the presence of NPPB (0.1mM), DIDS (4,4'-diisothiocyanatostilbene-2,2'-disulfonic acid, 1 mM, Sigma), glibenclamide (0.1mM, Sigma) or PD98059 (10 µM) in the bath solution. The cell membrane potential was clamped at -50mV and 400 ms pulses were applied from -100 to +120 mV with increments of 20 mV every 2 s. To generate whole cell current-voltage (I-V) relationship, membrane currents resulting from voltage stimuli were recorded for at least 3 min and analysed using an IBM-AT-compatible computer equipped with Digidata 1200 interface (Axon Instruments) and pCLAMP software (versions 5.51 and 6.0, Axon Instruments), respectively. Statistics-Results are expressed as mean ± S.E. of n observations using the Student's t test.

[7] = tested on: p38; experiment: p38 / Jun kinase activation by Western blotting of Sertoli cell lysates; assay type: cell-based, mouse; conditions: Anisomycin 10 µg/ml, 15 min; phosphorylation of p38 and MK2
Source text: After stripping, equal loadings of proteins were verified by reprobing the blots with anti-ERK1 (Santa Cruz Biotechnology).

Chain of CFTR Cl^- channel (Mus musculus, UniProt P26361) (P26361 whole entry): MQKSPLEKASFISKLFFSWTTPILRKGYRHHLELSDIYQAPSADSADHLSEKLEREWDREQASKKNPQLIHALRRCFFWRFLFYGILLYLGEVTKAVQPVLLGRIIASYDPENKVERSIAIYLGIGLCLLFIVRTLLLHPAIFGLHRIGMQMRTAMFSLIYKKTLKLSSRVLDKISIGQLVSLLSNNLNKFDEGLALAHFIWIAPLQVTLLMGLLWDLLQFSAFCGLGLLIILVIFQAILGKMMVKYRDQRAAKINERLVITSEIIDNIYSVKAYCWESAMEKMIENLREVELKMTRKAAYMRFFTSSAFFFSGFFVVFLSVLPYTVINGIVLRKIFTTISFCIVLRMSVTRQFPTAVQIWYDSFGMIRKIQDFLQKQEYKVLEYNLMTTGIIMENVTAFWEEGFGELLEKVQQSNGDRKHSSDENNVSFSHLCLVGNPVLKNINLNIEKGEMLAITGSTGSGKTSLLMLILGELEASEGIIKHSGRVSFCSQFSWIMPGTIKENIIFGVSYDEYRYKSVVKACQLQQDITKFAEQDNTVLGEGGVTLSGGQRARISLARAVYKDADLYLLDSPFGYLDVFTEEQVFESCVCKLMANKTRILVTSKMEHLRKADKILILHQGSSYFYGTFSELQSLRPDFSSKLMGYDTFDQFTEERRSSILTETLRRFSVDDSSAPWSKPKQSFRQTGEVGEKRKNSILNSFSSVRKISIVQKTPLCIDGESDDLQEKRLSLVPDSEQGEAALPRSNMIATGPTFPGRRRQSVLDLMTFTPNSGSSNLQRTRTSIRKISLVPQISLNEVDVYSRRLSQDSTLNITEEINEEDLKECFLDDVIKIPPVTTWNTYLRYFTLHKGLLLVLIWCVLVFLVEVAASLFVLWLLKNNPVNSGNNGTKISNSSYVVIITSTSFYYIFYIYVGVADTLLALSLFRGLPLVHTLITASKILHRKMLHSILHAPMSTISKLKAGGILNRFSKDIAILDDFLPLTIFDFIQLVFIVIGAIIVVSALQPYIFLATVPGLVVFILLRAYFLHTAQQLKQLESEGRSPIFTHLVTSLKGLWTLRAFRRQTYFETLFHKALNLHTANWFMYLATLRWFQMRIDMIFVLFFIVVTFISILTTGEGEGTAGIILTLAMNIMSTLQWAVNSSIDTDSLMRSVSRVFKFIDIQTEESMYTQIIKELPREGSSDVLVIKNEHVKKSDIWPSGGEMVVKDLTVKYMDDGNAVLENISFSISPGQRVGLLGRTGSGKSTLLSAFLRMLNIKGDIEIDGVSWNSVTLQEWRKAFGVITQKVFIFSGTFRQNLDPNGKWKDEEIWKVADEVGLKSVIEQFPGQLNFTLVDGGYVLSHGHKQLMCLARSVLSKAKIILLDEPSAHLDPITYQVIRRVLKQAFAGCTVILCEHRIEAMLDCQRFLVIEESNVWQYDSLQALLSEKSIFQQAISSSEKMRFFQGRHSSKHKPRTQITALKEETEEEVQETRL

Cl[C@H]1[C@H](Cl)[C@@H](Cl)[C@@H](Cl)[C@H](Cl)[C@H]1Cl [Lindane, γ-hexachlorocyclohexane]
activation of Jun kinases or p38 [1]: not activated
distribution of CFTR [2]: redistributed from plasma membrane to vacuoles
size of autophagic vacuoles ([3]; Lindane 50 µM, 24 h, electron microscopy): 2-20 µm^2
autophagic vacuoles observed per cell ([3]; Lindane 50 µM, 24 h, electron microscopy, n = 20 cells, average): ~ 50
induction of vacuolation / autophagy by the chemical alone ([3]; Lindane 50 µM, DDT 1.8 µM, Bϕ 90 µM, PCP 15 µM, SB203580 10 µM, NH4Cl 5 mM, 24 h): powerful activator of autophagy
time of maximal vacuolation ([3]; Lindane treatment): 24 to 48 h
reversibility of vacuolation ([3]; upon removal of the chemical): reversible upon Lindane removal
dead cells ([4]; Lindane 50 µM): little if any dead cells
propidium iodide staining of vacuolated cells ([4]; Lindane 50 µM, late stages): did not stain with propidium iodide
apoptotic features (caspase 3 activation, PARP cleavage, chromatin condensation, nuclear pyknosis, mitochondria degeneration) ([4]; Lindane-treated cells): absence of several apoptotic morphological and biochemical features
cell lysis on longer exposure ([4]; exposure for four days): not associated with cell lysis
induction of Cl^- currents in CFTR^+/+ renal distal cells ([5]; Lindane 50 µM): induction of Cl^- currents
reversed potential of induced currents ([5]; renal distal cells, n = 8): ~ 0 mV
anion selectivity sequence of induced currents [6]: Br^-≥ Cl^->>I^-
Cl^- conductance across plasma membrane ([6]; Lindane 50 µM): increased within minutes
reversal potential of induced currents ([6]; symmetrical Cl- solutions): ~ 0 mV
effect on Anisomycin-induced p38 activity [7]: not ascribed to p38 inhibition
